Measured values reported in paper PMC4204381 (Computational and Structural Biotechnology Journal, 2014).
Where two headings read alike, the source gives them in different places.

Key:
Male Sprague–Dawley rats [1] = assay: Histopathology and tissue observations in rats after a single oral dose; conditions: for hepatic vacuolization / hepatic necrosis: low and high doses, 6 or 24 h
Male Sprague–Dawley rats [2] = format: in vivo, rat; conditions: p < 0.05; for Oleoylcarnitine blood level vs control: Fig. 4A; for Palmitoylcarnitine blood level vs control: Fig. 4B; for LysoPC(20:1) blood level vs control: Fig. 4C
patients = conditions: cited from earlier work
Male Sprague–Dawley rats [3] = assay: Clinical chemistry; conditions: for clinical chemistry changes (ALT, AST, ALP): low dose, 6 or 24 h

Row | Compound | Oleoylcarnitine blood level vs control (Male Sprague–Dawley rats [2]; 6 h) | Palmitoylcarnitine blood level vs control (Male Sprague–Dawley rats [2]; 6 h) | LysoPC(20:1) blood level vs control (Male Sprague–Dawley rats [2]; 24 h) | LysoPC(20:1) blood level vs control (Male Sprague–Dawley rats [2]; 6 h) | Palmitoylcarnitine blood level vs control (Male Sprague–Dawley rats [2]; 24 h) | hepatic vacuolization / hepatic necrosis (Male Sprague–Dawley rats [1]) | clinical chemistry changes (ALT, AST, ALP) (Male Sprague–Dawley rats [3]) | also measured
1 | O=C1CN(/N=C/c2ccc(-c3ccc([N+](=O)[O-])cc3)o2)C(O)=N1 [DAN, dantrolene] |  | significantly increased | significantly decreased |  |  | neither hepatic vacuolization nor hepatic necrosis |  | incidence of hepatotoxicity (patients; patients): 0.35%
2 | CC(=O)Nc1ccc(O)cc1 [APAP, acetaminophen] | significantly increased | significantly increased | appeared to be decreased | significantly decreased | appeared to be increased |  |  | Oleoylcarnitine blood level vs control (Male Sprague–Dawley rats [2]; 24 h): significantly increased
3 | Nc1c2c(nc3ccccc13)CCCC2 [tacrine] |  |  |  |  |  |  |  | ALT increase with no liver cell injury (patients; human, in vivo): > 20 fold of the upper limit of normal

The next lines start with results.

Row | Oleoylcarnitine blood level vs control (Male Sprague–Dawley rats [2]; 6 h) | Palmitoylcarnitine blood level vs control (Male Sprague–Dawley rats [2]; 6 h) | LysoPC(20:1) blood level vs control (Male Sprague–Dawley rats [2]; 24 h) | LysoPC(20:1) blood level vs control (Male Sprague–Dawley rats [2]; 6 h) | Palmitoylcarnitine blood level vs control (Male Sprague–Dawley rats [2]; 24 h) | Compound | hepatic vacuolization / hepatic necrosis (Male Sprague–Dawley rats [1]) | clinical chemistry changes (ALT, AST, ALP) (Male Sprague–Dawley rats [3]) | also measured
4 | significantly increased |  |  |  |  | CN(C)C(=N)N=C(N)N [MET, metformin] | neither hepatic vacuolization nor hepatic necrosis | did not have any clinical chemistry changes | Taurocholic acid blood level vs control (Male Sprague–Dawley rats [2]; 6 h, Fig. 4D): significantly decreased; cases of liver injury reported to be associated with MET (patients; by 2012, concomitant intake of other potential hepatotoxicants): < 10 cases; ALT increase of ALT value in control group (Male Sprague–Dawley rats [3]; 6 h, high dose): < 3 fold
5 |  |  | significantly decreased | significantly decreased | appeared to be increased | NC(=O)OCC(COC(N)=O)c1ccccc1 [FEL, felbamate] | neither hepatic vacuolization nor hepatic necrosis | did not have any clinical chemistry changes | 
6 |  | significantly increased | appeared to be decreased |  |  | Cc1cnc(NC(=O)C2=C(O)c3ccccc3S(=O)(=O)N2C)s1 [MEL, meloxicam] | neither hepatic vacuolization nor hepatic necrosis |  | inflammation in the capsule of kidney (incidence) (Male Sprague–Dawley rats [1]; rats treated with MEL for 24 h): 1 out of 5; inflammation in the capsule of liver (incidence) (Male Sprague–Dawley rats [1]; rats treated with MEL for 24 h): 2 out of 5; ALT increase of the ALT value of the control group (Male Sprague–Dawley rats [3]; 24 h, high dose group): < 2 fold
